According to US20230067929A1, “HETEROCYCLIC DERIVATIVES, PHARMACEUTICAL COMPOSITIONS AND THEIR USE IN THE TREATMENT, AMELIORATION OR PREVENTION OF CANCER” (Tolremo Therapeutics AG, priority 2018, published 2023):

What follows are compounds tested on A375 cells (assay: A375 cell immunofluorescence assay (with 1 μM S1152 and 0.5 μM S1008), EC50). Conditions: 1 μM S1152 + 0.5 μM S1008, one day, ratio FL2/FL3 staining (sc-365823 antibody).
Type: cell-based
Procedure: One thousand four hundred A375 cells were seeded in each well of a 384 well microplate. One day later they were treated with 1 μM S1152 (Selleckchem) in dimethyl sulfoxide, 0.5 μM S1008 (Selleckchem) and dose ranges of invention compounds for one day in Dulbecco's Modified Eagle's Medium supplemented with 10% fetal calf serum and 2 mM (2S)-2-amino-4-carbamoylbutanoic acid. Wells were incubated with 4% polyoxymethylene (Sigma Aldrich 158127) at ambient temperature. After ten minutes, polyoxymethylene was replaced with phosphate-buffered saline. After one minute phosphate-buffered saline was replaced with 0.2% polyethylene glycol octylphenyl ether in phosphate-buffered saline. After ten minutes at ambient temperature 0.2% polyethylene glycol octylphenyl ether in phosphate-buffered saline was replaced with 1% aminoethanoic acid in phosphate-buffered saline. […] After one hour at 37° C., the solution was replaced with phosphate-buffered saline twice. Phosphate-buffered saline was replaced with 2 μg/ml A-11029 (Invitrogen) in 0.05% polyoxyethylene (20) sorbitan monolaurate in phosphate-buffered saline. […] After one hour at ambient temperature in the dark, signal in wells was measured with a Acumen Cellista. 3,8-Diamino-5-[3-(diethylmethylammonio)propyl]-6-phenylphenanthridinium diiodide-positive objects were defined in FL3 (565-600 nm) with a perimeter between 50-800 μm and a total intensity of 10000-1000000 FLU. Signal in FL2 (500-530 nm) was measured in defined objects. A normalized ratio of total ln FL2 over total ln FL3 staining was log transformed. A non-linear regression (variable slope, 4 parameters) was used to calculate EC50 values using GraphPad Prism (Version 7.0d).

| SMILES | EC50 [µM] |
| --- | --- |
| CCC(=O)N1CCCC(c2nc(Nc3cccc(F)c3)cc(-c3cncnc3)n2)C1 (stereo not shown) | 1 to 10 |
| CCC(=O)N1CCCC(c2nc(Nc3cccc(F)c3)cc(-c3ccc(OC)nc3)n2)C1 (stereo not shown) | > 10 |
| CCC(=O)N1CCCC(c2nc(Nc3cccc(F)c3)cc(-c3ccccn3)n2)C1 (stereo not shown) | > 10 |
| CCC(=O)N1CCCC(c2nc(Nc3cccc(F)c3)cc(-c3cccc(O)c3)n2)C1 (stereo not shown) | 1 to 10 |
| CCC(=O)N1CCCC(c2nc(Nc3cccc(F)c3)cc(-c3c(C)noc3C)n2)C1 (stereo not shown) | 1 to 10 |
| CCC(=O)N1CCCC(c2nc(Nc3cccc(F)c3)cc(-c3ccc4ocnc4c3)n2)C1 (stereo not shown) | > 10 |
| CCC(=O)N1CCCC(c2nc(Nc3cccc(F)c3)cc(-c3cncc4ccccc34)n2)C1 (stereo not shown) | > 10 |
| CCC(=O)N1CCCC(c2nc(Nc3cccc(F)c3)cc(-c3ccccc3C(=O)NC)n2)C1 (stereo not shown) | > 10 |
| COc1cncc(-c2cc(Nc3cccc(Cl)c3)nc(C3CCCN(C(C)=O)C3)n2)c1 (stereo not shown) | < 1 |
| CC(=O)N1CCCC(c2nc(Nc3cccc(C)c3)cc(-c3cncc(C)c3)n2)C1 (stereo not shown) | < 1 |
| CC(=O)N1CCCC(c2nc(Nc3cccc(C)c3)cc(-c3cccnc3)n2)C1 (stereo not shown) | < 1 |
| CC(=O)N1CCCC(c2nc(Nc3ccc(C)c(C)c3)cc(-c3cccnc3)n2)C1 (stereo not shown) | < 1 |
| CCc1cncc(-c2cc(Nc3cccc(F)c3)nc(C3CCCN(C(C)=O)C3)n2)c1 (stereo not shown) | < 1 |
| CC(=O)N1CCCC(c2nc(Nc3cccc(F)c3)cc(-c3cnccc3C)n2)C1 (stereo not shown) | 1 to 10 |
| CC(=O)N1CCCC(c2nc(Nc3cccc(F)c3)c(C)c(-c3cccnc3)n2)C1 (stereo not shown) | > 10 |
| COc1ccc(-c2cc(Nc3cccc(F)c3)nc(C3CCCN(C(C)=O)C3)n2)cc1 (stereo not shown) | 1 to 10 |
| COc1cncc(-c2cc(Nc3ccccc3)nc(C3CCCN(C(C)=O)C3)n2)c1 (stereo not shown) | < 1 |
| CC(=O)N1CCCC(c2nc(Nc3cccc(F)c3)cc(-c3cncnc3)n2)C1 (stereo not shown) | 1 to 10 |
| CNC(=O)c1ccc(-c2cc(Nc3cccc(F)c3)nc(C3CCCN(C(C)=O)C3)n2)cc1 (stereo not shown) | 1 to 10 |
| COc1cccc(-c2cc(Nc3cccc(F)c3)nc(C3CCCN(C(C)=O)C3)n2)c1 (stereo not shown) | 1 to 10 |
| CC(=O)N1CCCC(c2nc(Nc3cccc(F)c3)cc(-c3ccoc3)n2)C1 (stereo not shown) | 1 to 10 |

| SMILES | EC50 [µM] |
| --- | --- |
| CC(=O)N1CCCC(c2nc(Nc3cccc(F)c3)cc(-c3c(C)noc3C)n2)C1 (stereo not shown) | 1 to 10 |
| COc1csc(-c2cc(Nc3cccc(F)c3)nc(C3CCCN(C(C)=O)C3)n2)c1 (stereo not shown) | < 1 |
| COc1cncc(-c2cc(Nc3cccc(OCCOCCOCCNC(C)=O)c3)nc(C3CCCN(C(C)=O)C3)n2)c1 (stereo not shown) | 1 to 10 |
| CC(=O)N1CCCC(c2nc(Nc3cccc(F)c3)cc(-c3ccnnc3)n2)C1 (stereo not shown) | 1 to 10 |
| CC(=O)N1CCCC(c2nc(Nc3cccc(F)c3)cc(-c3cc(Cl)cs3)n2)C1 (stereo not shown) | 1 to 10 |
| COc1cccc(Nc2cc(-c3cncc(OC)c3)nc(C3CCCN(C(C)=O)C3)n2)c1 (stereo not shown) | 1 to 10 |
| COc1ccc(Nc2cc(-c3cncc(OC)c3)nc(C3CCCN(C(C)=O)C3)n2)cc1 (stereo not shown) | 1 to 10 |
| CC(=O)N1CCCC(c2nc(Nc3cccc(F)c3)cc(-c3cccc4[nH]ccc34)n2)C1 (stereo not shown) | < 1 |
| CC(=O)N1CCCC(c2nc(Nc3cc(F)cc(F)c3)cc(-c3c(C)noc3C)n2)C1 (stereo not shown) | 1 to 10 |
| CC(=O)N1CCCC(c2nc(Nc3cccc(F)c3)cc(-c3ccc(C)nc3)n2)C1 (stereo not shown) | 1 to 10 |
| CC(=O)N1CCCC(c2nc(Nc3cccc(F)c3)cc(-c3ccc(C)nc3C)n2)C1 (stereo not shown) | 1 to 10 |
| CC(=O)N1CCCC(c2nc(Nc3cc(F)cc(F)c3)cc(-c3cncnc3)n2)C1 (stereo not shown) | 1 to 10 |
| CC(=O)N1CCCC(c2nc(Nc3cc(F)cc(F)c3)cc(-c3ccnnc3)n2)C1 (stereo not shown) | 1 to 10 |
| CC(=O)N1CCCC(c2nc(Nc3cccc(F)c3)cc(-c3cncc(N4CCOCC4)c3)n2)C1 (stereo not shown) | < 1 |
| COc1csc(-c2cc(Nc3cccc(C)c3)nc(C3CCCN(C(C)=O)C3)n2)c1 (stereo not shown) | < 1 |
| CC(=O)N1CCCC(c2nc(Nc3cccc(C)c3)cc(-c3cncc4[nH]ccc34)n2)C1 (stereo not shown) | < 1 |
| COC(=O)c1cncc(-c2cc(Nc3cccc(F)c3)nc(C3CCCN(C(C)=O)C3)n2)c1 (stereo not shown) | > 10 |
| CC(=O)N1CCCC(c2nc(Nc3cccc(C)c3)cc(-c3ccnnc3)n2)C1 (stereo not shown) | 1 to 10 |
| CC(=O)N1CCCC(c2nc(Nc3ccccc3)cc(-c3cccnc3)n2)C1 (stereo not shown) | 1 to 10 |
| CC(=O)N1CCCC(c2nc(Nc3cccc(F)c3)cc(-c3cnc4[nH]ccc4c3)n2)C1 (stereo not shown) | 1 to 10 |
| CC(=O)N1C[C@H](c2nc(Nc3ccccc3)cc(-c3cncc4[nH]ccc34)n2)CC[C@@H]1C | < 1 |

Second part, the compound after the results:

| EC50 [µM] | SMILES |
| --- | --- |
| 1 to 10 | CCC(=O)N1CCCC(c2nc(Nc3cccc(F)c3)cc(-c3ccccc3)n2)C1 (stereo not shown) |
| 1 to 10 | CCC(=O)N1CCCC(c2nc(Nc3cccc(F)c3)cc(-c3ccc(C(F)(F)F)nc3)n2)C1 (stereo not shown) |
| > 10 | CCC(=O)N1CCCC(c2nc(Cl)cc(Nc3ccccc3F)n2)C1 (stereo not shown) |
| > 10 | CCC(=O)N1CCCC(c2nc(Nc3cccc(F)c3)cc(-c3sc(CC)nc3C)n2)C1 (stereo not shown) |
| > 10 | CCC(=O)N1CCCC(c2nc(Nc3cccc(F)c3)cc(-c3cnc(OC(C)C)s3)n2)C1 (stereo not shown) |
| > 10 | CCC(=O)N1CCCC(c2nc(Nc3cccc(F)c3)cc(-c3cnn(C(C)C)c3)n2)C1 (stereo not shown) |
| < 1 | COc1cncc(-c2cc(Nc3cccc(C)c3)nc(C3CCCN(C(C)=O)C3)n2)c1 (stereo not shown) |
| > 10 | CC(=O)N1CCCC(c2nc(Nc3ccc4c(c3)CCC4)cc(-c3cccnc3)n2)C1 (stereo not shown) |
| > 10 | CC(=O)N1CCCC(c2nc(Nc3cccc(F)c3)cc(-c3cncc(C(F)(F)F)c3)n2)C1 (stereo not shown) |
| 1 to 10 | CC(=O)N1CCCC(c2nc(Nc3cccc(F)c3)cc(-c3ccncc3)n2)C1 (stereo not shown) |
| 1 to 10 | COc1cncc(-c2cc(Nc3ccc(C)c(F)c3)nc(C3CCCN(C(C)=O)C3)n2)c1 (stereo not shown) |
| 1 to 10 | COc1cncc(-c2cc(Nc3ccc(Cl)cc3)nc(C3CCCN(C(C)=O)C3)n2)c1 (stereo not shown) |
| < 1 | CC(=O)Nc1ccc(-c2cc(Nc3cccc(F)c3)nc(C3CCCN(C(C)=O)C3)n2)cc1 (stereo not shown) |
| 1 to 10 | CC(=O)N1CCCC(c2nc(Nc3cccc(F)c3)cc(-c3cccs3)n2)C1 (stereo not shown) |
| < 1 | CC(=O)N1CCCC(c2nc(Nc3cccc(F)c3)cc(-c3cc(C)cs3)n2)C1 (stereo not shown) |
| < 1 | CC(=O)N1CCCC(c2nc(Nc3cccc(F)c3)cc(-c3scc4c3OCCO4)n2)C1 (stereo not shown) |
| 1 to 10 | CC(=O)N1CCCC(c2nc(Nc3cccc(F)c3)cc(-c3sc(C(C)C)nc3C)n2)C1 (stereo not shown) |
| > 10 | COc1cncc(-c2cc(Nc3ccc(OCCOCCOCCNC(C)=O)cc3)nc(C3CCCN(C(C)=O)C3)n2)c1 (stereo not shown) |
| > 10 | CC(=O)N1CCCC(c2nc(Nc3cccc(F)c3)cc(-c3csc4cnccc34)n2)C1 (stereo not shown) |
| 1 to 10 | CC(=O)N1CCCC(c2nc(Nc3cccc(F)c3)cc(-c3cnn(CC(F)(F)F)c3)n2)C1 (stereo not shown) |
| < 1 | CC(=O)N1CCCC(c2nc(Nc3cc(F)cc(F)c3)cc(-c3cccnc3)n2)C1 (stereo not shown) |
| 1 to 10 | CC(=O)N1CCCC(c2nc(Nc3cccc(C)c3)cc(-c3c(C)noc3C)n2)C1 (stereo not shown) |
| 1 to 10 | CC(=O)N1CCCC(c2nc(Nc3cccc(C)c3)cc(-c3cncnc3)n2)C1 (stereo not shown) |
| 1 to 10 | CC(=O)N1CCCC(c2nc(Nc3ccccc3)cc(-c3cncnc3)n2)C1 (stereo not shown) |
| < 1 | CC(=O)N1CCCC(c2nc(Nc3ccccc3)cc(-c3cncc4[nH]ccc34)n2)C1 (stereo not shown) |
| < 1 | CC(=O)Nc1cncc(-c2cc(Nc3cccc(F)c3)nc(C3CCCN(C(C)=O)C3)n2)c1 (stereo not shown) |
| 1 to 10 | CC(=O)Nc1ccc(-c2cc(Nc3cccc(F)c3)nc(C3CCCN(C(C)=O)C3)n2)cn1 (stereo not shown) |
| < 1 | CC(=O)N1C[C@H](c2nc(Nc3ccccc3)cc(-c3cncnc3)n2)CC[C@@H]1C |
